Experimental data as given in ChEMBL document CHEMBL2417394, “Exquisite selectivity for human toll-like receptor 8 in substituted furo[2,3-c]quinolines” (J Med Chem, 2013).
Calls of active or inactive are those of the source. The calls are words filed in the database; no cut-off is given here.

Legend:
Type in all cases: cell-based
[1] = molecular target: T1, Toll-like receptor 9 (Homo sapiens) (UniProt Q9NR96); test: Modulation of human TLR9 expressed in HEK293 cells co-transfected with MD2 and sAP assessed as induction of NF-kappaB activity by reporter gene assay
T1 sequence (whole entry): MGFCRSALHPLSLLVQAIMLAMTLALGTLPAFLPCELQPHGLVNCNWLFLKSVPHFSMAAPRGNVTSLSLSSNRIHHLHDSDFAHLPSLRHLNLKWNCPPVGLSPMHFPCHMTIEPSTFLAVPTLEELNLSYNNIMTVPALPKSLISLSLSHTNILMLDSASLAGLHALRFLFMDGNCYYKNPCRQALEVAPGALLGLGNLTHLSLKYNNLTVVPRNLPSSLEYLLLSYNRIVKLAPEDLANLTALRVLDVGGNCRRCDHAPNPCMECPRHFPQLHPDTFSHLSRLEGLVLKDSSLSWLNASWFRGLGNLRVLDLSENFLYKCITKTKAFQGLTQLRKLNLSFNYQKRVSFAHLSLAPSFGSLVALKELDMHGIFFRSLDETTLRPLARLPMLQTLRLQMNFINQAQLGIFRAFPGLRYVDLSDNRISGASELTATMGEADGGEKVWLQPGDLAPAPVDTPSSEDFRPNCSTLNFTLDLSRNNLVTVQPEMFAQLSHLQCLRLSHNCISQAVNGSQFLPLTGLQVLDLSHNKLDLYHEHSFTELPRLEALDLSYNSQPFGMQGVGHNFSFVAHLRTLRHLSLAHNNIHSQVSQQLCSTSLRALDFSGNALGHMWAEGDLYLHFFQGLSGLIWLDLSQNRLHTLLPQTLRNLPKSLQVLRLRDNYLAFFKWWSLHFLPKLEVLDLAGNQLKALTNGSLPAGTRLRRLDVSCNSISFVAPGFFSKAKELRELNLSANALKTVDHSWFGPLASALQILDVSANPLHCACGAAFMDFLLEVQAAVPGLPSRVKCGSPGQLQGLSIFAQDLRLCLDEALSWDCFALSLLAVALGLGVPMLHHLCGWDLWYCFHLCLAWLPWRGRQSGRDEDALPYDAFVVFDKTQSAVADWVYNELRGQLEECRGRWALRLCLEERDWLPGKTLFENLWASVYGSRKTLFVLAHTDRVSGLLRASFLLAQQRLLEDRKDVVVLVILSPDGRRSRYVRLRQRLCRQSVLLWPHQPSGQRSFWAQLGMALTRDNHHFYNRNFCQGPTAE

[2] = molecular target: T2, Toll-like receptor 7 (Homo sapiens) (UniProt Q9NYK1); test: Modulation of human TLR7 expressed in HEK293 cells co-transfected with MD2 and sAP assessed as induction of NF-kappaB activity by reporter gene assay
T2 sequence (whole entry): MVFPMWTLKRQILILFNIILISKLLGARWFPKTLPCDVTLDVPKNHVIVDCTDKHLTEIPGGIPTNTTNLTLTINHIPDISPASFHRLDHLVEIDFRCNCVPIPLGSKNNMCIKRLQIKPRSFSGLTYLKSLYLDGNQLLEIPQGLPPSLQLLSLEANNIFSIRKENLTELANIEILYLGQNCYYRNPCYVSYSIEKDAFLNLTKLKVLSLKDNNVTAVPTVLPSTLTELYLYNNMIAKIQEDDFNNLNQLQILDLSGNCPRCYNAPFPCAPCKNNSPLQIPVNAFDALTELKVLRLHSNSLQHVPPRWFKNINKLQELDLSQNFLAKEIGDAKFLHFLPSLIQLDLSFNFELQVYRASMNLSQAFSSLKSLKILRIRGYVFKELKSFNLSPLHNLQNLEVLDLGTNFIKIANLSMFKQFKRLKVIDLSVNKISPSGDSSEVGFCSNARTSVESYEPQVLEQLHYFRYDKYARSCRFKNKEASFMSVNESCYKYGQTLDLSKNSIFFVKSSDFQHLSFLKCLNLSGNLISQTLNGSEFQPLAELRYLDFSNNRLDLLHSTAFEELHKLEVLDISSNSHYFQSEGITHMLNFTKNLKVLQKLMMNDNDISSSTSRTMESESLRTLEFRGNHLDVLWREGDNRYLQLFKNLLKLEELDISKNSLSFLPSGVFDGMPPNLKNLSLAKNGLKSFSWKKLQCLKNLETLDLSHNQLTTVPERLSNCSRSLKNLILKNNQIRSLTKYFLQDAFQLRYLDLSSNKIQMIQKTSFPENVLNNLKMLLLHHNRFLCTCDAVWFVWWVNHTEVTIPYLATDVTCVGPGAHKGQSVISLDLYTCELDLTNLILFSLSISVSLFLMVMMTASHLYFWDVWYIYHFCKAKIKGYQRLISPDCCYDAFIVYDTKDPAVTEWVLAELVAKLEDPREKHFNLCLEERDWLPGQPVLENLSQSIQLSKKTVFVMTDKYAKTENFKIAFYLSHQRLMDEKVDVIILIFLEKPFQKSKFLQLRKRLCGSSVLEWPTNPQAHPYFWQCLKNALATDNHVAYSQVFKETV

[3] = molecular target: Toll-like receptor 5 (Homo sapiens) (UniProt O60602); test: Modulation of human TLR5 expressed in HEK293 cells co-transfected with MD2 and sAP assessed as induction of NF-kappaB activity by reporter gene assay
[4] = molecular target: Toll-like receptor 4 (Homo sapiens) (UniProt O00206); test: Modulation of human TLR4 expressed in HEK293 cells co-transfected with MD2 and sAP assessed as induction of NF-kappaB activity by reporter gene assay
[5] = molecular target: Toll-like receptor 3 (Homo sapiens) (UniProt O15455); test: Modulation of human TLR3 expressed in HEK293 cells co-transfected with MD2 and sAP assessed as induction of NF-kappaB activity by reporter gene assay
Sequence of Toll-like receptor 3 (Homo sapiens) (O15455 whole entry): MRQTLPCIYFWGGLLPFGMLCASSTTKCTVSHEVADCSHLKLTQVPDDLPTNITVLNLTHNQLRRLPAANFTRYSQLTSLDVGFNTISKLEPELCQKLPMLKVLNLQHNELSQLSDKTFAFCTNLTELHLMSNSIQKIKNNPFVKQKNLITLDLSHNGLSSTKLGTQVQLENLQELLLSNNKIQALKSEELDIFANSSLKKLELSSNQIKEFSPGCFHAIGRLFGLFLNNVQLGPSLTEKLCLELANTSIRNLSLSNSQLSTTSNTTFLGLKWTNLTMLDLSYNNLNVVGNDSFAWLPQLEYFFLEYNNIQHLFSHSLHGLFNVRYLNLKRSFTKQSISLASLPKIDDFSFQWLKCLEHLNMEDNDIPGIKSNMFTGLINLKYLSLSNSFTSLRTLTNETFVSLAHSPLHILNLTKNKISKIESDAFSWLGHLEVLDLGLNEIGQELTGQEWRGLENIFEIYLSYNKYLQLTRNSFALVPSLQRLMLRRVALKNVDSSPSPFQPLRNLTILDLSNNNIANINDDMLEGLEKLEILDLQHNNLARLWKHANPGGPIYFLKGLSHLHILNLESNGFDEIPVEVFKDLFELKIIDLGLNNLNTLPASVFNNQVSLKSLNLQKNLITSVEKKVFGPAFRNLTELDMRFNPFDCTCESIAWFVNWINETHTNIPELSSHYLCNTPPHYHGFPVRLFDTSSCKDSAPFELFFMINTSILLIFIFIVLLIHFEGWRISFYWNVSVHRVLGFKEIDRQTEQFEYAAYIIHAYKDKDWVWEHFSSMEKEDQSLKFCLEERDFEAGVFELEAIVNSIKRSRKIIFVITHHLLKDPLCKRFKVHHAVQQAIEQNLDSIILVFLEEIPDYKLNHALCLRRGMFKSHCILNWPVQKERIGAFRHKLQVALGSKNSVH

Sequence of Toll-like receptor 4 (Homo sapiens) (O00206 whole entry): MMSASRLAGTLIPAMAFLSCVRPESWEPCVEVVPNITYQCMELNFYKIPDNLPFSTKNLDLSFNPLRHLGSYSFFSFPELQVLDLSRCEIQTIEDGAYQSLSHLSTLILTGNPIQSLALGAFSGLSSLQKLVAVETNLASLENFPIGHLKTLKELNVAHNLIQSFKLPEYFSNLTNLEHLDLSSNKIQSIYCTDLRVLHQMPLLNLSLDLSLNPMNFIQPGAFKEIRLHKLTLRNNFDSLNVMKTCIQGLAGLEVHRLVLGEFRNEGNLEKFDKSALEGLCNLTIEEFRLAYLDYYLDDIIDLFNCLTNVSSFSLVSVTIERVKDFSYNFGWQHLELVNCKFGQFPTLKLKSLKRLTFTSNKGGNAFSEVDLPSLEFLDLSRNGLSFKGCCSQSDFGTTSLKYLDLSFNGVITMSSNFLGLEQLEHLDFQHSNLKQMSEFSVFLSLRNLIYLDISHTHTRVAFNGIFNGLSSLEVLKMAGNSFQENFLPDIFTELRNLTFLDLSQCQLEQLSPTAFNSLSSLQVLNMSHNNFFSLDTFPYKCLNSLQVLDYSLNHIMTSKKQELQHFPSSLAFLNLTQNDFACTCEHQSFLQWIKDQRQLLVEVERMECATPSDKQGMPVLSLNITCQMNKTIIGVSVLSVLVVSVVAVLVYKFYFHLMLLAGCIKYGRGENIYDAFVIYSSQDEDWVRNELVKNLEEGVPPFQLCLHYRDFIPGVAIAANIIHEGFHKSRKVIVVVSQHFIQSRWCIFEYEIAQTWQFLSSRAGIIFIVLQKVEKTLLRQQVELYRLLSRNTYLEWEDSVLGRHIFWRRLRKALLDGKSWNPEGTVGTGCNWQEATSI
Sequence of Toll-like receptor 5 (Homo sapiens) (O60602 whole entry): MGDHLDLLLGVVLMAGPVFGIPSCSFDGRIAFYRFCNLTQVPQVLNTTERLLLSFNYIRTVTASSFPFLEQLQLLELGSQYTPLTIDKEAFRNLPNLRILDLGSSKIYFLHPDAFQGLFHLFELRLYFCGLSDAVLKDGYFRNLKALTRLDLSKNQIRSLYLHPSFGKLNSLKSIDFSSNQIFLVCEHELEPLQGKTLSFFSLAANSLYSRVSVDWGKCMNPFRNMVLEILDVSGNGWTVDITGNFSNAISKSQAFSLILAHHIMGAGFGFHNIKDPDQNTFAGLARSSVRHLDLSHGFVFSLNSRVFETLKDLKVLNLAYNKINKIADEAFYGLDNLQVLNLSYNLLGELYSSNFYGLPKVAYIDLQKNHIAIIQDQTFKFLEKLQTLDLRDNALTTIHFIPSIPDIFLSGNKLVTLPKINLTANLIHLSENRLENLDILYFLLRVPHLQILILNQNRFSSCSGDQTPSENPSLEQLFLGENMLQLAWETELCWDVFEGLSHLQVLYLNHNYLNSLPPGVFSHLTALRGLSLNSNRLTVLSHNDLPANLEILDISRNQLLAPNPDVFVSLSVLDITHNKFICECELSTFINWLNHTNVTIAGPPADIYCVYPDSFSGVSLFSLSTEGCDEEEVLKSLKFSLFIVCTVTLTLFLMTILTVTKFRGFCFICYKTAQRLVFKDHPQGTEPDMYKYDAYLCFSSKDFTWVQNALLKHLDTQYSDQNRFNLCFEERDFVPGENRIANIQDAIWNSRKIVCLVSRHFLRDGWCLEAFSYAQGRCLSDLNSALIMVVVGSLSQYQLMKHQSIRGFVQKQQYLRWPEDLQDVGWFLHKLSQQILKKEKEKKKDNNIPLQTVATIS

Structure (SMILES)	Activity [1]	Activity [2]	Activity [3]	Activity [4]	Activity [5]
NCCc1cc2c(o1)c(N)nc1ccccc12	Active	Active	Active	Active	Active
CCCCc1cc2c(nc(N)c3ccccc32)o1	inactive	inactive	inactive	inactive	inactive
